Read-outs that look alike come from different tables or passages of the source. Marks after values point to notes of the source that are not given here.
Assays:
5‐HT2C receptor = molecular target: T1, 5‐HT2C receptor (Homo sapiens, UniProt P28335); experiment: biochemical; type: binding
T1 sequence (P28335 33-458): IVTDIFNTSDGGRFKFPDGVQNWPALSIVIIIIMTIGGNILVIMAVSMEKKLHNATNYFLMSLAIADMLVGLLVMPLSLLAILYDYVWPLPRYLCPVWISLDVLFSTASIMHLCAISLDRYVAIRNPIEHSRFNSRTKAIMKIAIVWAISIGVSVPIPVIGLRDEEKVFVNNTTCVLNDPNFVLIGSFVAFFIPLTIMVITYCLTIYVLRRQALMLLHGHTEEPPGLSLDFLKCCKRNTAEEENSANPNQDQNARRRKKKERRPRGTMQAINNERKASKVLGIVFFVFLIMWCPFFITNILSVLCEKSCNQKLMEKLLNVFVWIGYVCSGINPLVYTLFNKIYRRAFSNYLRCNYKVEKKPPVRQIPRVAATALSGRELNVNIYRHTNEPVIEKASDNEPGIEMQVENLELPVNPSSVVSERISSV

5‐HT1A receptor = molecular target: T2, 5‐HT1A receptor (Homo sapiens, UniProt P08908); experiment: biochemical; type: binding
T2 sequence (P08908 1-422): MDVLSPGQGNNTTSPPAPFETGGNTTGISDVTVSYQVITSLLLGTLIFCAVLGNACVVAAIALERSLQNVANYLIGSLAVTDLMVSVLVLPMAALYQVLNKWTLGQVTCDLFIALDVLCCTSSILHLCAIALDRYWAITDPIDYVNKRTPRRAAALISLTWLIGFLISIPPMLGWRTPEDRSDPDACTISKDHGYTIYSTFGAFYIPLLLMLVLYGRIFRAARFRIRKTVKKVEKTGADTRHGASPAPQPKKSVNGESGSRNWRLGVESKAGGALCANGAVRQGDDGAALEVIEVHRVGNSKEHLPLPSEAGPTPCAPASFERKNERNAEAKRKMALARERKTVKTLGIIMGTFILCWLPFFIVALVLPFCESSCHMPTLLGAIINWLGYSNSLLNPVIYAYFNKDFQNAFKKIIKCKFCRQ

human NET [1] = molecular target: T3, human NET (Homo sapiens, UniProt P23975); experiment: cell-based; type: cell-based
T3 sequence (P23975 whole entry): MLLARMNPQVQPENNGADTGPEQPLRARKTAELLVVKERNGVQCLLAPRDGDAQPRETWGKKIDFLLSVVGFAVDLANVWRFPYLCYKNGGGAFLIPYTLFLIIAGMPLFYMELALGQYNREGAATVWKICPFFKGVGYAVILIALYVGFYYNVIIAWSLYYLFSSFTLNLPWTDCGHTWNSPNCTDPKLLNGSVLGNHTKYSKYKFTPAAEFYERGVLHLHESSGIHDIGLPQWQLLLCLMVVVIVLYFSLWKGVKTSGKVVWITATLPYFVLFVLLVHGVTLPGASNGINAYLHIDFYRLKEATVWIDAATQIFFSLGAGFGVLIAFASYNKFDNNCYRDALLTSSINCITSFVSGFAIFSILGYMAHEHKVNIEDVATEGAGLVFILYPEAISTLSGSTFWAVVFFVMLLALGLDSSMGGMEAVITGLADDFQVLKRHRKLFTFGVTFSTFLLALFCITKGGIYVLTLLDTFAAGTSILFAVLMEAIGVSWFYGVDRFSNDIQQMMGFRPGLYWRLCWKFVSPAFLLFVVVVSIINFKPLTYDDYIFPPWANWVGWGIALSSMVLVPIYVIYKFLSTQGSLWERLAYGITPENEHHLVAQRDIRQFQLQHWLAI

human SERT [2] = molecular target: T4, human SERT (Homo sapiens, UniProt P31645); experiment: cell-based
T4 sequence (P31645 whole entry): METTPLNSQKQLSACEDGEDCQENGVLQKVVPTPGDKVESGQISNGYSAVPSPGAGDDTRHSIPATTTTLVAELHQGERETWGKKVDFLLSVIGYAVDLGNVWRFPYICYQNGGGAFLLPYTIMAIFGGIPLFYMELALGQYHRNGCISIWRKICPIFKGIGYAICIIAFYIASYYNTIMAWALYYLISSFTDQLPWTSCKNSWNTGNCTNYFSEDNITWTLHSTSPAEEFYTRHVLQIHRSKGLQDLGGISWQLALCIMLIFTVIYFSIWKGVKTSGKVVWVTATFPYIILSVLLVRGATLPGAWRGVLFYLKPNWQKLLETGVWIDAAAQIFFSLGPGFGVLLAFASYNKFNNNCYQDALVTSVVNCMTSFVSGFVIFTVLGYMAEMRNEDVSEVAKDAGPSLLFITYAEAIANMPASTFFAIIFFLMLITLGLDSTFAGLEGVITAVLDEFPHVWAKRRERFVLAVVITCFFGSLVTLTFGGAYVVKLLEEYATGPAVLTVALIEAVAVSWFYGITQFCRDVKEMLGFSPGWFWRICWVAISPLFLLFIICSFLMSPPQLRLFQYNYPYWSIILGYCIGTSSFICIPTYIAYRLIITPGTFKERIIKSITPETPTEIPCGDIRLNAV

5‐HT2A receptor = 5‐HT2A receptor (Homo sapiens, UniProt P28223); experiment: biochemical; type: binding
Sequence of 5‐HT2A receptor (P28223 whole entry): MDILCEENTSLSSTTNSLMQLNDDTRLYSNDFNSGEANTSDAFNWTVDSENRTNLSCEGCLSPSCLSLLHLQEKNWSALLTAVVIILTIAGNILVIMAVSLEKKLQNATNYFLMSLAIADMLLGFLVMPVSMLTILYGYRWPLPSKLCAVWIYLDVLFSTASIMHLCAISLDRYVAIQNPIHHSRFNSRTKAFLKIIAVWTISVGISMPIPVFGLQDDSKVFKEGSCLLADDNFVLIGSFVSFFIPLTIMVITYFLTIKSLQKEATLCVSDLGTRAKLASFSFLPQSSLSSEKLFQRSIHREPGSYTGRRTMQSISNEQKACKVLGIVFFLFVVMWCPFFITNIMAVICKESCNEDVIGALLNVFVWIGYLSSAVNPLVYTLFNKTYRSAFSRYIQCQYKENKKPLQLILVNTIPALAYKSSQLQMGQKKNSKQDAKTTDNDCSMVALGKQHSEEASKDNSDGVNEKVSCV

human DAT = human DAT (Homo sapiens, UniProt Q01959); experiment: cell-based
Sequence of human DAT (Q01959 whole entry): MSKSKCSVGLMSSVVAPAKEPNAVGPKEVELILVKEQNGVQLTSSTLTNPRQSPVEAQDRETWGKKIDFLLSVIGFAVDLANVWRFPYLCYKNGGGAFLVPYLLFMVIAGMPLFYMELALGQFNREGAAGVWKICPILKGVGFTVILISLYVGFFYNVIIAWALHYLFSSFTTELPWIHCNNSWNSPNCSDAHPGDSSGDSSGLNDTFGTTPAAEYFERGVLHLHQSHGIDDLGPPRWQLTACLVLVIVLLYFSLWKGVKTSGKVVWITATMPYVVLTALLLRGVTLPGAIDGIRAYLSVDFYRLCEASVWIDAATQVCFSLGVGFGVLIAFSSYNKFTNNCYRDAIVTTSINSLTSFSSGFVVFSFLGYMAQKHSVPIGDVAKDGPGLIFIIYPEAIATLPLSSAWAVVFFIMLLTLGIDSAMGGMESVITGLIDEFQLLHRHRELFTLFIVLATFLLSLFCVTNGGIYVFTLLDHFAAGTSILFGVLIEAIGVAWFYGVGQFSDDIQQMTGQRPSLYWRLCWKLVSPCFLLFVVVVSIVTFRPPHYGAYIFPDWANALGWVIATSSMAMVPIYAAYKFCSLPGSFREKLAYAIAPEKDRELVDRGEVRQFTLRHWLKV

[3] = human
[4] = human; remark: listed apart in the source
[5] = human, in vivo
[6] = in vivo
[7] = in vivo; cited from earlier work
[8] = mouse; cited from earlier work
human SERT [9] = molecular target: T4, human SERT; experiment: Transporter-mediated 5-HT release from preloaded HEK 293 cells; type: cell-based; conditions: 100 μM, 15 min, compared with citalopram (negative control)
human NET [10] = molecular target: T3, human NET; experiment: Transporter-mediated noradrenaline release from preloaded HEK 293 cells; type: cell-based; conditions: 100 μM, 45 min, compared with nisoxetine (negative control)
[11] = read-out: 5‐HT2C Receptor binding Ki ± SD
[12] = read-out: 5‐HT1A Receptor binding Ki ± SD
[13] = read-out: 5‐HT2A Receptor binding Ki ± SD

Compound | WHO database: cases of serotonin syndrome, only suspected cause [3] | WHO database: cases of serotonin syndrome, only suspected cause or among others [3] | Medline database: number of published cases of serotonin syndrome [4] | Ki (5‐HT1A receptor) [µM] | IC50 (human NET [1]) [µM] | IC50 (human SERT [2]) [µM] | Ki (5‐HT2A receptor) [µM] | IC50 (human DAT) [µM] | further results
CCC(=O)C(C[C@@H](C)N(C)C)(c1ccccc1)c1ccccc1 [l(R)‐methadone] |  |  |  |  |  |  |  |  | Ki (5‐HT2C receptor; [11]): 2.6 ± 0.3 µM; Ki (5‐HT1A receptor; [12]): > 17 µM; IC50 (human NET [1]; read-out: NET IC50 (95% CI)): 2.5 µM; IC50 (human SERT [2]; read-out: SERT IC50 (95% CI)): 0.28 µM; Ki (5‐HT2A receptor; [13]): 0.72 ± 0.61 µM; IC50 (human DAT; read-out: DAT IC50 (95% CI)): > 100 µM
CN(C)CCCC1(c2ccc(F)cc2)OCc2cc(C#N)ccc21 (centres unmarked) [Citalopram] | 178 | 777 | 57 |  |  |  |  |  | 
CC[C@@H](c1cccc(O)c1)[C@@H](C)CN(C)C [Tapentadol] | 42 | 115 | 1 | > 17 | 1.3 | 3.3 | 6.3 ± 0.2 | 78 | Ki (5‐HT2C receptor): 12 ± 3.2 µM; Cu,plasma [5]: 0.1 to 1.5 µM; fold more potent inhibitor of the NET versus SERT (human NET [1]): 2.6 fold; Cu,brain ([6]; human): 0.2–3.5 ^l μM; Ctotal,plasma [7]: 0.1 to 1.9 µM; SERT/NET ratio (95% CI) (human SERT [2]): 0.39 (0.21–0.70)
CN1CC[C@]23c4c5ccc(O)c4O[C@H]2[C@@H](O)C=C[C@H]3[C@H]1C5 [Morphine] | 1 | 64 | 4 | > 17 |  |  | > 13 |  | 
COc1ccc(C(CN(C)C)C2(O)CCCCC2)cc1 (centres unmarked) [Venlafaxine] | 240 | 859 | 75 | > 17 |  |  |  |  | Ki (5‐HT2C receptor): > 15 µM
CCC(=O)C(CC(C)N(C)C)(c1ccccc1)c1ccccc1 (centres unmarked) [Methadone] | 2 | 93 | 3 | > 17 | 4.1 | 0.23 | 0.61 ± 0.03 | > 100 | Ki (5‐HT2C receptor): 2.2 ± 0.3 µM; IC50 (human SERT [2]; SERT inhibition in vitro IC50): 0.23 µM
COc1ccc2c3c1O[C@H]1[C@@H](O)C=C[C@H]4[C@@H](C2)N(C)CC[C@@]341 [Codeine] | 0 | 32 | 0 | > 17 | > 100 | > 100 | > 13 | > 100 | 
COc1ccc2c3c1O[C@H]1C(=O)CC[C@@]4(O)[C@@H](C2)N(C)CC[C@]314 [Oxycodone] | 2 | 101 | 13 | > 17 | > 100 | > 100 | > 13 | > 100 | Cu,plasma [5]: 0.2 µM; fu,plasma [8]: 0.6; IC50 (human SERT [2]; SERT inhibition in vitro IC50): > 100 µM
COc1ccc2c3c1O[C@H]1[C@@H](O)CC[C@H]4[C@@H](C2)N(C)CC[C@@]341 [Dihydrocodeine] | 0 | 4 | 0 | > 17 | > 100 | > 100 | > 13 | > 100 | 
CN1CC[C@]23c4c5ccc(O)c4O[C@H]2C(=O)CC[C@@]3(O)[C@H]1C5 [Oxymorphone] | 0 | 3 | 0 | > 17 | > 100 | > 100 | > 13 | > 100 | 
CC(=O)Oc1ccc2c3c1O[C@H]1[C@@H](OC(C)=O)C=C[C@H]4[C@@H](C2)N(C)CC[C@@]341 [Heroin, diacetylmorphine] |  |  |  | > 17 | > 100 | > 100 | > 13 | > 100 | 
CNCC[C@H](Oc1cccc2ccccc12)c1cccs1 [Duloxetine] | 550 | 993 | 20 |  |  |  |  |  | 
CC(=O)O[C@H]1C=C[C@H]2[C@H]3Cc4ccc(O)c5c4[C@@]2(CCN3C)[C@H]1O5 [6‐Acetylmorphine, 6‐acetylmorphine] |  |  |  | > 17 | > 100 | > 100 | > 13 | > 100 | 
COc1ccc2c3c1O[C@H]1C(=O)CC[C@H]4[C@@H](C2)N(C)CC[C@]314 [Hydrocodone] | 0 | 6 | 2 | > 17 | > 100 | > 100 | > 13 | > 100 | 
CCC(=O)C(C[C@H](C)N(C)C)(c1ccccc1)c1ccccc1 [d(S)‐methadone] |  |  |  |  |  |  |  |  | Ki (5‐HT2C receptor; [11]): 1.9 ± 0.2 µM; Ki (5‐HT1A receptor; [12]): > 17 µM; IC50 (human NET [1]; read-out: NET IC50 (95% CI)): 69 µM; IC50 (human SERT [2]; read-out: SERT IC50 (95% CI)): 5.6 µM; Ki (5‐HT2A receptor; [13]): 0.52 ± 0.11 µM; IC50 (human DAT; read-out: DAT IC50 (95% CI)): > 100 µM
COc1ccc2c(c1)[C@]13CCCC[C@@H]1[C@H](C2)N(C)CC3 [Dextromethorphan] | 7 | 86 | 12 | > 17 | 5.8 |  |  | > 100 | Cu,brain ([6]; human): 0–0.44 ^d μM
CN(C)C[C@H]1CCCC[C@]1(O)c1cccc(O)c1 (relative stereo) [O‐desmethyltramadol, O‐desmethyl‐cis‐tramadol] |  |  |  |  |  |  |  |  | Ki (5‐HT1A receptor; [12]): > 17 µM; IC50 (human NET [1]; read-out: NET IC50 (95% CI)): 6.1 µM; Cu,brain [6]: 0.1–1.1 ^k μM; Ki (5‐HT2A receptor; [13]): > 13 µM; IC50 (human DAT; read-out: DAT IC50 (95% CI)): > 100 µM
CNCCC(Oc1ccc(C(F)(F)F)cc1)c1ccccc1 (centres unmarked) [Fluoxetine] | 181 | 641 | 54 |  |  |  |  |  | 
CCOC(=O)C1(c2ccccc2)CCN(C)CC1 [Pethidine] | 6 | 66 | 5 |  |  |  |  |  | Cu,plasma [5]: 0.3 to 2.3 µM; estimated maximal plasma concentration at maximal single dose ([5]; im): e Maximal concentration after a single dose of pethidine of 50 mg intramuscularly was 2 μM (Erstad et al., 1997). The drug label indicates threefold higher maximal single doses of 150 mg i.m. resulting in threefold higher estimated concentrations up to 6 μM.; Cu,brain ([6]; human): 0.7–5.4 ^h μM; Maximal plasma concentration after a single dose [7]: e Maximal concentration after a single dose of pethidine of 50 mg intramuscularly was 2 μM (Erstad et al., 1997). The drug label indicates threefold higher maximal single doses of 150 mg i.m. resulting in threefold higher estimated concentrations up to 6 μM.
COc1cccc(C2(O)CCCCC2CN(C)C)c1 (centres unmarked) [Tramadol] | 62 | 647 | 26 | > 17 | 2.1 |  |  | 100 | Cu,brain ([6]; human): 0.1–4.6 ^j μM; Ctotal,plasma [7]: 0.1–2.5 ^a μM
CNC(C)Cc1ccc2c(c1)OCO2 (centres unmarked) [MDMA, 3,4‐Methylenedioxymethamphetamine] |  |  |  |  |  |  |  |  | Transporter-mediated 5-HT release (human SERT [9]): induced significantly greater 5‐HT and noradrenaline release; Transporter-mediated noradrenaline release (human NET [10]): induced significantly greater 5‐HT and noradrenaline release
